Assay results reported in patent US8497240B2 (priority 2006, dated 2013).
Like-named read-outs stand apart in the source and are kept apart here. Ends that are not written are not given here.

Tests used:
[1] = type: in vivo, NIH/Swiss mice; settings: 30 nmol/kg
Method: (§1) In FIG. 3A, bars represent mean±sd, n=6-10. […] Gavage (1.5 g/kg) was given at t=0, Sample was taken at t=30 min. […] In FIG. 3B, points represent mean±sem, n=8-15.
Peptide was injected IP at t=−5 minutes into 4-hour fasted NIH/Swiss female mice. […] In FIG. 17 points represent mean+/−sem. […] Samples were taken at t=60, t=120 and t=180.

human GIP receptor = molecular target: T1, human GIP receptor (Homo sapiens, UniProt P48546); test: biochemical; type: binding
T1 construct: expressed in transfected cells; host or cells: HEK293 (HEK-GIPR), membranes
T1 sequence (P48546 22-466): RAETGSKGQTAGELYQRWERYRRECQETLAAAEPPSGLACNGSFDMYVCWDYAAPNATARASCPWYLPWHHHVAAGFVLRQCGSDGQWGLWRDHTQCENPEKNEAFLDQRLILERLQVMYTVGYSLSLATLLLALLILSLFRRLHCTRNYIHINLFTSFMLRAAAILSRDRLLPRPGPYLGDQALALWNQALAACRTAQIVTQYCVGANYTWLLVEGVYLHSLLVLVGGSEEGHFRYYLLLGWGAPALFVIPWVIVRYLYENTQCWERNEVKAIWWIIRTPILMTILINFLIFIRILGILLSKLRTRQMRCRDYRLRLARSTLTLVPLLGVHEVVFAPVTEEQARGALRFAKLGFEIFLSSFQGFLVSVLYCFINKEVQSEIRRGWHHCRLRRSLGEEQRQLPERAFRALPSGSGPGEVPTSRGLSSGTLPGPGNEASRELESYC

[2] = type: in vivo, NIH/Swiss mice; settings: 80 nmol/kg, AUC240
Method: as §1
Points represent mean±sem.

[3] = read-out: GIP RBA (% Inh 10 nM)
[4] = read-out: (% Inh 10 nm, GIP-LF Assay)

Row | Molecule | OGTT/GL (%) [1] | inhibition at 0.01 µM (human GIP receptor; [3]) [%] | Basal Glucose Lowering at Peptide Conc. of 80 nmol/kg [2] | inhibition at 0.01 µM (human GIP receptor; [4]) [%]
1 | CC[C@H](C)[C@H](NC(=O)[C@H](CO)NC(=O)[C@H](Cc1ccc(O)cc1)NC(=O)[C@H](CC(=O)O)NC(=O)[C@H](CO)NC(=O)[C@@H](NC(=O)[C@H](Cc1ccccc1)NC(=O)[C@@H](NC(=O)CNC(=O)[C@H](CCC(=O)O)NC(=O)[C@H](CO)NC(=O)[C@@H](N)Cc1ccc(O)cc1)[C@@H](C)O)[C@@H](C)CC)C(=O)N[C@@H](C)C(=O)N[C@@H](CCSC)C(=O)N[C@@H](CC(=O)O)C(=O)N[C@@H](CCCCN)C(=O)N[C@H](C(=O)N[C@@H](Cc1c[nH]cn1)C(=O)N[C@@H](CCC(N)=O)C(=O)N[C@@H](CCC(N)=O)C(=O)N[C@@H](CC(=O)O)C(=O)N[C@@H](Cc1ccccc1)C(=O)N[C@H](C(=O)N[C@@H](CC(N)=O)C(=O)N[C@@H](Cc1c[nH]c2ccccc12)C(=O)N[C@@H](CC(C)C)C(=O)N[C@@H](CC(C)C)C(=O)N[C@@H](C)C(=O)N[C@@H](CCC(N)=O)C(=O)N[C@@H](CCCCN)C(=O)N1CCC[C@H]1C(=O)N[C@@H](CCCCN)C(=O)N[C@@H](CCCCN)C(=O)N[C@H](C(=O)N[C@@H](CCCNC(=N)N)C(=O)N[C@@H](Cc1ccc(O)cc1)C(=O)N[C@@H](CO)C(N)=O)[C@@H](C)CC)C(C)C)[C@@H](C)CC [0601GIP4538] | −9, 30% | 94.2 | – | –
2 | CC[C@H](C)[C@H](NC(=O)[C@H](CO)NC(=O)[C@H](Cc1ccc(O)cc1)NC(=O)[C@H](CC(=O)O)NC(=O)[C@H](CO)NC(=O)[C@@H](NC(=O)[C@H](Cc1ccccc1)NC(=O)[C@@H](NC(=O)CNC(=O)[C@H](CCC(=O)O)NC(=O)[C@@H](C)NC(=O)[C@@H](N)Cc1ccc(O)cc1)[C@@H](C)O)[C@@H](C)CC)C(=O)N[C@@H](C)C(=O)N[C@@H](CC(C)C)C(=O)N[C@@H](CC(=O)O)C(=O)N[C@@H](CCCCN)C(=O)N[C@H](C(=O)N[C@@H](CCCNC(=N)N)C(=O)N[C@@H](CCC(N)=O)C(=O)N[C@@H](CCC(N)=O)C(=O)N[C@@H](CCC(=O)O)C(=O)N[C@@H](Cc1ccccc1)C(=O)N[C@H](C(=O)N[C@@H](CC(N)=O)C(=O)N[C@@H](Cc1c[nH]c2ccccc12)C(=O)N[C@@H](CC(C)C)C(=O)N[C@@H](CC(C)C)C(=O)N[C@@H](C)C(=O)N[C@@H](CCC(N)=O)C(=O)N[C@@H](CCCCN)C(=O)N1CCC[C@H]1C(=O)N[C@@H](CCCCN)C(=O)N[C@@H](CCCCN)C(=O)N[C@H](C(=O)N[C@@H](CCCNC(=N)N)C(=O)N[C@@H](Cc1ccc(O)cc1)C(=O)N[C@@H](CO)C(N)=O)[C@@H](C)CC)C(C)C)[C@@H](C)CC [0601GIP4539] | −12, 30% | 98.7 | −5%, AUC240 | –
3 | CC[C@H](C)[C@H](NC(=O)[C@H](CO)NC(=O)[C@H](Cc1ccc(O)cc1)NC(=O)[C@H](CC(=O)O)NC(=O)[C@H](CO)NC(=O)[C@@H](NC(=O)[C@H](Cc1ccccc1)NC(=O)[C@@H](NC(=O)CNC(=O)[C@H](CCC(=O)O)NC(=O)[C@@H](C)NC(=O)[C@@H](N)Cc1ccc(O)cc1)[C@@H](C)O)[C@@H](C)CC)C(=O)N[C@@H](C)C(=O)N[C@@H](CCSC)C(=O)N[C@@H](CC(=O)O)C(=O)N[C@@H](CCCCN)C(=O)N[C@H](C(=O)N[C@@H](Cc1c[nH]cn1)C(=O)N[C@@H](CCC(N)=O)C(=O)N[C@@H](CCC(N)=O)C(=O)N[C@@H](CC(=O)O)C(=O)N[C@@H](Cc1ccccc1)C(=O)N[C@H](C(=O)N[C@@H](CC(N)=O)C(=O)N[C@@H](Cc1c[nH]c2ccccc12)C(=O)N[C@@H](CC(C)C)C(=O)N[C@@H](CC(C)C)C(=O)N[C@@H](C)C(=O)N[C@@H](CCC(N)=O)C(=O)N[C@@H](CCCCN)C(=O)NCCC(=O)NCCC(=O)N1CCC[C@H]1C(=O)N[C@@H](CCCCN)C(=O)N[C@@H](CCCCN)C(=O)N[C@H](C(=O)N[C@@H](CCCNC(=N)N)C(=O)N[C@@H](Cc1ccc(O)cc1)C(=O)N[C@@H](CO)C(N)=O)[C@@H](C)CC)C(C)C)[C@@H](C)CC [0601GIP4648] | −20, 30% | 85.1 | −8%, AUC240 | –
4 | CC[C@H](C)[C@H](NC(=O)[C@H](CO)NC(=O)[C@H](Cc1ccc(O)cc1)NC(=O)[C@H](CC(=O)O)NC(=O)[C@H](CO)NC(=O)[C@@H](NC(=O)[C@H](Cc1ccccc1)NC(=O)[C@@H](NC(=O)CNC(=O)[C@H](CCC(=O)O)NC(=O)[C@@H](C)NC(=O)[C@@H](N)Cc1ccc(O)cc1)[C@@H](C)O)[C@@H](C)CC)C(=O)N[C@@H](C)C(=O)N[C@@H](CCSC)C(=O)N[C@@H](CC(=O)O)C(=O)N[C@@H](CCCCN)C(=O)N[C@H](C(=O)N[C@@H](Cc1c[nH]cn1)C(=O)N[C@@H](CCC(N)=O)C(=O)N[C@@H](CCC(N)=O)C(=O)N[C@@H](CC(=O)O)C(=O)N[C@@H](Cc1ccccc1)C(=O)N[C@H](C(=O)N[C@@H](CC(N)=O)C(=O)N[C@@H](Cc1c[nH]c2ccccc12)C(=O)N[C@@H](CC(C)C)C(=O)N[C@@H](CC(C)C)C(=O)N[C@@H](C)C(=O)N[C@@H](CCC(N)=O)C(=O)N[C@@H](CCCCN)C(=O)N1CCC[C@H]1C(=O)N[C@@H](CCCCN)C(=O)NCC(=O)N[C@@H](CCCCN)C(=O)NCC(=O)N[C@@H](CCCCN)C(=O)N[C@@H](CO)C(N)=O)C(C)C)[C@@H](C)CC [0601GIP4700] | −21, 30% | 86.6 | −6%, AUC240 | –
5 | CC[C@H](C)[C@H](NC(=O)[C@H](CCCCN)NC(=O)[C@H](CC(=O)O)NC(=O)[C@H](CC(C)C)NC(=O)[C@H](C)NC(=O)[C@@H](NC(=O)[C@H](CO)NC(=O)[C@H](Cc1ccc(O)cc1)NC(=O)[C@H](CC(=O)O)NC(=O)[C@H](CO)NC(=O)[C@@H](NC(=O)[C@H](Cc1ccccc1)NC(=O)[C@@H](NC(=O)CNC(=O)[C@H](CCC(=O)O)NC(=O)[C@H](C)NC(=O)[C@H](Cc1ccc(O)cc1)NC(=O)[C@@H](N)CC(C)C)[C@@H](C)O)[C@@H](C)CC)[C@@H](C)CC)C(=O)N[C@@H](C)C(=O)N[C@@H](CCC(N)=O)C(=O)N[C@@H](CCC(N)=O)C(=O)N[C@@H](CCC(=O)O)C(=O)N[C@@H](Cc1ccccc1)C(=O)N[C@H](C(=O)N[C@@H](CC(N)=O)C(=O)N[C@@H](Cc1c[nH]c2ccccc12)C(=O)N[C@@H](CC(C)C)C(=O)N[C@@H](CC(C)C)C(=O)N[C@@H](C)C(=O)N[C@@H](CCC(N)=O)C(=O)N[C@@H](CCCCN)C(=O)N1CCC[C@H]1C(=O)N[C@@H](CCCCN)C(=O)N[C@@H](CCCCN)C(=O)N[C@H](C(=O)N[C@@H](CCCNC(=N)N)C(=O)N[C@@H](Cc1ccc(O)cc1)C(=O)N[C@@H](CO)C(N)=O)[C@@H](C)CC)C(C)C [0601GIP4803] | −16, % | 89.9 | – | 89.9
6 | CC[C@H](C)[C@H](NC(=O)[C@H](CO)NC(=O)[C@H](Cc1ccc(O)cc1)NC(=O)[C@H](CC(=O)O)NC(=O)[C@H](CO)NC(=O)[C@@H](NC(=O)[C@H](Cc1ccccc1)NC(=O)[C@@H](NC(=O)CNC(=O)[C@H](CCC(=O)O)NC(=O)CNC(=O)[C@@H](N)Cc1c[nH]cn1)[C@@H](C)O)[C@@H](C)CC)C(=O)N[C@@H](C)C(=O)N[C@@H](CCSC)C(=O)N[C@@H](CC(=O)O)C(=O)N[C@@H](CCCCN)C(=O)N[C@H](C(=O)N[C@@H](Cc1c[nH]cn1)C(=O)N[C@@H](CCC(N)=O)C(=O)N[C@@H](CCC(N)=O)C(=O)N[C@@H](CC(=O)O)C(=O)N[C@@H](Cc1ccccc1)C(=O)N[C@H](C(=O)N[C@@H](CC(N)=O)C(=O)N[C@@H](Cc1c[nH]c2ccccc12)C(=O)N[C@@H](CC(C)C)C(=O)N[C@@H](CC(C)C)C(=O)N[C@@H](C)C(=O)N[C@@H](CCC(N)=O)C(=O)N[C@@H](CCCCN)C(=O)N1CCC[C@H]1C(=O)N[C@@H](CCCCN)C(=O)N[C@@H](CCCCN)C(=O)N[C@H](C(=O)N[C@@H](CCCNC(=N)N)C(=O)N[C@@H](Cc1ccc(O)cc1)C(=O)N[C@@H](CO)C(N)=O)[C@@H](C)CC)C(C)C)[C@@H](C)CC [Compound 0601GIP4839] | – | – | – | 23.9
7 | CC[C@H](C)[C@H](NC(=O)[C@H](CCCCN)NC(=O)[C@H](CC(=O)O)NC(=O)[C@H](CC(C)C)NC(=O)[C@H](C)NC(=O)[C@@H](NC(=O)[C@H](CO)NC(=O)[C@H](Cc1ccc(O)cc1)NC(=O)[C@H](CC(=O)O)NC(=O)[C@H](CO)NC(=O)[C@@H](NC(=O)[C@H](Cc1ccccc1)NC(=O)[C@@H](NC(=O)CNC(=O)[C@H](CCC(=O)O)NC(=O)CNC(=O)[C@@H](N)Cc1c[nH]cn1)[C@@H](C)O)[C@@H](C)CC)[C@@H](C)CC)C(=O)N[C@@H](C)C(=O)N[C@@H](CCC(N)=O)C(=O)N[C@@H](CCC(N)=O)C(=O)N[C@@H](CCC(=O)O)C(=O)N[C@@H](Cc1ccccc1)C(=O)N[C@H](C(=O)N[C@@H](CC(N)=O)C(=O)N[C@@H](Cc1c[nH]c2ccccc12)C(=O)N[C@@H](CC(C)C)C(=O)N[C@@H](CC(C)C)C(=O)N[C@@H](C)C(=O)N[C@@H](CCC(N)=O)C(=O)N[C@@H](CCCCN)C(=O)N1CCC[C@H]1C(=O)N[C@@H](CCCCN)C(=O)N[C@@H](CCCCN)C(=O)N[C@H](C(=O)N[C@@H](CCCNC(=N)N)C(=O)N[C@@H](Cc1ccc(O)cc1)C(=O)N[C@@H](CO)C(N)=O)[C@@H](C)CC)C(C)C [Compound 0601GIP4841] | – | – | – | 56.6
8 | HGEGTFISDYSIALDKIRQQEFVNWLLAQKPKKIRYS-NH2 [Compound 0601GIP4842] | – | – | – | 40.8
9 | HGEGTLISDYSIAMDKIHQQDFVNWLLAQKPKKIRYS-NH2 [Compound 0601GIP4843] | – | – | – | 3
